Data taken from patent US20090104119A1, “Dendrimer Based Compositions And Methods Of Using The Same” (priority 2004, published 2009).

Assays:
[1] = Toxicity of dendrimer conjugates and free methotrexate in mice (body weight, histopathology); format: in vivo
Experimental: (§1) Delivery of targeted nanoparticle therapeutic. Twice weekly, SCID mice with s.c. KB xenografts, starting on day 4 after tumor implantation, received via the tail vein an injection of either targeted or nontargeted conjugate containing methotrexate, a conjugate without methotrexate, free methotrexate, or saline as a control. The compounds were delivered in a 0.2 mL volume of saline per 20 g of mouse. The single dose of methotrexate delivered each time equaled 0.33 mg/kg. The higher doses of 1.67 and 3.33 mg/kg free methotrexate were also tested. The conjugates were delivered at equimolar concentration of methotrexate calculated based on the number of methotrexate molecules present in a nanoparticle. The conjugate without methotrexate was delivered at equimolar concentration of dendrimer. In the initial trial, six groups of mice with five mice in each group received up to 15 injections. In the follow-up trial, mice received up to 28 injections dependent on their survival. The body weights of the mice were monitored throughout the experiment as an indication of adverse effects of the drug. Histopathology of multiple organs was done at the termination of each trial and each time mouse had to be euthanized due to toxic effects or tumor burden. Tissues from lung, heart, liver, pancreas, spleen, kidney, and tumor were analyzed. Additionally, cells were isolated from tumors, stained with targeted fluorescein-labeled conjugate, and tested for the presence of folic acid receptors using flow cytometer.
Toxicity of dendrimer conjugates. […] No gross toxicity, either acutely or chronically up to 99 days, was observed regardless of whether the dendrimer conjugate contained methotrexate. The weight was monitored throughout the experiment and no loss of weight was observed; in fact, the animals gained weight. At each time point, a gross examination and histopathology of the liver, spleen, kidney, lung, and heart were done. No morphologic abnormalities were observed on the histopathology examination.
The remaining experimental groups had very uniform body weight fluctuations nonindicative of toxicity when compared with control groups with saline or conjugate without methotrexate.

KB cells [2] = assay: Inhibition of cell growth by total cell protein
Experimental: Cell culture and treatment. KB cells were maintained in folate-free medium containing 10% serum (See, e.g., Quintana et al, Pharm. Res. 19, 1310 (2002)) to provide extracellular FA similar to that found in human serum. Cells were plated in 12-well plates for uptake studies, in 24-well plates for cell growth analysis, and in 96-well plates for XTT assay. Cells were rinsed with FA-free medium containing dialyzed serum and incubated at 37° C. with dendrimer-drug conjugates for the indicated time periods and concentrations. KB cells were also maintained in RPMI medium containing 2 μM FA to obtain cells which express low FAR.
Evaluation of dendrimer cytotoxicity. Cell growth was determined by assay of the total protein in lysates of treated cells using a bicinchoninic acid reagent (PIERCE, and by XTT assay, using a kit from Roche.
Time course and dose dependent inhibition of cell growth. Previous studies have shown that MTX-induced cytotoxicity is detectable in vitro only if the medium is completely deprived of FA (See, e.g., Sobrero & Bertino, Int. J. Cell Cloning 4, 51 (1986)). The effect of the trifunctional dendrimers on cell growth was tested in cells incubated in a FA-deficient medium. Cells were treated with 300 nM conjugates (equivalent of 1500 nM MTX) or 1500 nM free MTX for 1-4 days, and cell proliferation was determined by estimation of cellular protein content. Cells were treated for 2 days with different concentrations of the conjugates or free MTX (the conjugate concentration is given as MTX equivalents, with 5 MTX per dendrimer molecule). KB cells which express high and low FAR were incubated with 30 nM of the dendrimers for 1 hr at 37° C., rinsed, and the fluorescence of cells was determined by flow cytometric analysis (See. e.g., FIG. 21, left panel).
KB cells were treated with 150 or 500 nM MTX in the presence or absence of equimolar concentrations of free FA for 24 h. […] The cells were rinsed to remove the drugs and incubated with fresh medium for an additional 6 d, and total cell protein was determined.

s.c. human KB xenografts = assay: Targeted drug delivery, tumor growth and survival in SCID mice with KB xenografts; format: in vivo, SCID CB-17 mice; details: for effect on tumor growth: first trial
Experimental: Recipient animal and tumor model.
as §1
Targeted drug delivery to tumor cells through the folate receptor. The efficacy of different doses of conjugates was tested on SCID CB-17 mice bearing s.c. human KB xenografts and was compared with equivalent and higher doses of free methotrexate. Mice were maintained on the folic acid-deficient diet for 3 weeks before injection of the KB tumor cells to achieve circulating levels of folic acid that approach those in human serum and to prevent down-regulation of folate receptors on tumor xenografts (See, Mathias et al., J Nucl Med 29, 1579 (1998)). Six groups of SCID mice with five mice in each group were injected s.c. on one flank with 5×10^6 KB cells in 0.2 mL PBS suspension. The highest total dose of G5-FI-FA-MTX therapeutic used equals 55.0 mg/kg and is equivalent to a 5.0 mg/kg total cumulative dose of free methotrexate (FIG. 29). The therapeutic dose of the conjugate was compared with three cumulative doses of free methotrexate equivalent to 33.3, 21.7, and 5.0 mg/kg accumulated in 10 to 15 injections based on mouse survival. Saline and the conjugate without methotrexate (G5-FI-FA) were used as controls.

KB cells [3] = assay: Inhibition of cell growth by XTT assay; format: cell-based, human; details: 1, 2 or 3 days
Experimental: Cell culture and treatment.
Evaluation of dendrimer cytotoxicity.
Because the binding of the conjugate to KB cells reaches maximal uptake within 1 h (Quintana et al, 2002. Pharmaceutical Research 19: 1310-1316.), the effect of the G5-FI-FA-MTX on cell growth was initially tested by pre-incubation of cells with the conjugate for 1 h, followed by incubation in a drug-free medium for 5 d. […] When the cells were pre-incubated with dendrimers for 4 h, there was a modest decrease of about 10% in cell growth as determined by XTT assay. The cytotoxicity measurements were therefore done by incubation with the dendrimer for a minimum of 24 h, a pre-incubation time period shown to induce significant cytotoxicity.
The inhibition of cell growth induced by the conjugates was also tested by XTT assay which is based on the conversion of XTT to formazan by the active mitochondria of live cells (See, e.g., Roehm et al, J Immunol Methods 142, 257 (1991)).
As free FA blocks the uptake of the dendrimers as well as rescues cells from MTX-induced cytotoxicity, the effect of pre-incubation of cells with excess FA on the anti-proliferative effect of G5-FITC-FA-MTX was tested. KB cells were exposed to different concentrations of the conjugate or free MTX for 24 h in the absence or presence of 50 μM FA. The incubation medium was removed, the cells were rinsed and incubated with fresh medium for 5 additional days in the absence of the drugs, and the XTT assay was performed (See, e.g., FIG. 24, □, ▪, represents cells treated with MTX; Δ, ▴, represents cells treated with G5-FITC-FA-MTX).
The anti-proliferative effect of the MTX-conjugates was compared to conjugates that lacked either the FA or the FITC molecule. KB cells were incubated with 30 nM of the conjugates (=150 nM effective MTX concentration) for 24 h and the incubation medium was removed. The cells were rinsed and incubated for an additional 5 d in fresh medium in the absence of the drugs, and the XTT assay was performed.

KB tumor = assay: Biodistribution of fluorescent dendrimer conjugates in tumor (confocal microscopy, flow cytometry); format: in vivo, mice; details: single-cell suspension from tumors, versus nontargeted
Experimental: Biodistribution of fluorescent dendrimer conjugates. […] Flow cytometry analysis was done with single-cell suspension isolated from tumor. Tumor was crushed, cell suspension filtered through 70 μm nylon mesh (Becton Dickinson, Franklin Lakes, N.J.), and washed with in PBS. Samples were analyzed using an EPICS XL flow cytometer (Coulter, Miami, Fla.). As determined by prior propidium iodine staining, only live cells were gated for analysis. Data were reported as the mean channel fluorescence of the cell population.
For confocal microscope imaging, tissue was dissected, embedded in OCT, and frozen in 2-methyl-butane in a dry ice bath. Sections (15 μm) were cut on a cryostat, thaw mounted onto slides, and stored at −80° C. until stained. After staining, the slides were fixed in 4% paraformaldehyde, rinsed in phosphate buffer (0.1 mol/L; pH 7.2), and mounted in Prolong. The images were acquired using a Zeiss 510 metalaser scanning confocal microscope equipped with a ×40 Plan-Apo 1.2 numerical aperture (water immersion) objective with a correction collar. The confocal image was recorded as 512×512×48 pixels with a scale of 0.45×0.45×0.37 μm per pixel. Each image cube was optically cut into 48 sections, and the sections that cut through the nucleus and cytoplasm were presented.
Targeting and internalization of fluorescent dendrimer conjugate. […]

Compound	time at which doses became lethal ([1]; cumulative doses 33.3 and 21.7 mg/kg) [days]	histopathology of the liver ([1]; mouse, in vivo)	toxicity ([1]; total accumulated dose equivalent to 5.0 mg/kg free methotrexate)	inhibition of cell growth (FIGS. 21 and 22) (KB cells [2]; FA-deficient medium, 1-4 days, different concentrations)	growth inhibition, free MTX versus equimolar MTX in G5-FITC-FA-MTX (KB cells [2]; below 1 μM)	effect on tumor growth (s.c. human KB xenografts; up to 15 injections, cumulative 5.0 mg/kg methotrexate equivalents or equimolar dendrimer)	effect on tumor growth (s.c. human KB xenografts; cumulative 33.3 and 21.7 mg/kg)	day by which all mice died (s.c. human KB xenografts; second 99-day trial) [days]	survivors at the termination of the trial (s.c. human KB xenografts; second 99-day trial)	inhibition of cell growth, XTT (KB cells [3])	mean channel fluorescence of tumor cells, flow cytometry (KB tumor)
CN(Cc1cnc2nc(N)nc(N)c2n1)c1ccc(C(=O)N[C@@H](CCC(=O)O)C(=O)O)cc1 [MTX, Methotrexate, reference compound]	32 to 36	advanced liver lesions, collections of inflammatory cells, and periportal inflammation	nor free methotrexate at the same dose were toxic	inhibited cell growth in a time- and dose-dependent fashion	higher	no effect on tumor growth	affecting tumor growth	≤ 66	no mice surviving	time-dependent cytotoxicity	–
G5-(Ac)82-(6-TAMRA)3-(FA)4 [G5-6T-FA]	–	–	–	–	–	–	–	–	–	–	higher
